Experimental data reported in patent US6482815B1 (priority 1999, dated 2002).
Read-outs that look alike come from different tables or passages of the source.

Legend:
[1] = tested on: MOLT-3; assay: Anti-proliferative activity (colony counts), MOLT-3; assay type: cell-based, human
From the text: (§1) The dose-responsive anti-proliferative activity of various organic arsenic acid substituted compounds against leukemic cell lines (NALM-6 and MOLT-3) is shown below in Table 3. FIGS. 3A-3F show dose response curves in ALL1, NALM-6, and MOLT-3 cells.

[2] = tested on: primary leukemic cells; assay: MTT cytotoxicity against primary leukemic cells; conditions: cells from 5 leukemia patients, FIGS. 4A-4E
[3] = tested on: NALM-6; assay: In situ detection of apoptosis (nick-end-labeling, ApopTag), NALM-6; assay type: cell-based, human; conditions: NALM-6, WHI-P381 2 μg/ml, 36 hour incubation (FIG. 1B)
Method: (§2) Assay for apoptosis was performed by the in situ nick-end-labeling method using an ApopTag in situ detection kit (Oncor, Gaithersburg, Md.) according to the manufacturer's recommendations. Exponentially growing cells (NALM-6 and MOLT-3) were seeded in 6-well tissue culture plates at a density of 50×10^4 cells/well and cultured for 36 hours at 37° C. in a humidified 5% CO2 atmosphere. The supernatant culture medium was carefully aspirated and replaced with fresh medium alone or fresh medium containing WHI-P381 at a concentration of 2 μg/ml.
(§3) After a 36 hour incubation at 37° C. in a humidified 5% CO2 incubator, the supernatants were carefully aspirated and the cells were treated for 1-2 minutes with 0.1% trypsin. The detached cells were collected into a 15 ml centrifuge tube, washed with medium and pelleted by centrifugation at 1000 rpm for 5 minutes. Cells were resuspended in 50 μl of PBS, transferred to poly-L-lysine coated coverslips and allowed to attach for 15 minutes. The cells were washed once with PBS and incubated with equilibration buffer for 10 minutes at room temperature.
(§4) After removal of the equilibration buffer, cells were incubated for 1 hour at 37° C. with the reaction mixture containing terminal deoxynucleotidyl transferase (TdT) and digoxigenin-11-UTP for labeling of exposed 3′-hydroxyl ends of fragmented nuclear DNA. […]

[4] = tested on: NALM-6; assay: cells; assay type: cell-based; conditions: Homo sapiens, NALM-6, read-out: NALM-6 IC50
[5] = tested on: NALM-6; assay: Anti-proliferative activity (colony counts), NALM-6; assay type: cell-based, human
From the text: as §1

[6] = tested on: ALL1; assay: cells; assay type: cell-based; conditions: Homo sapiens, read-out: ALL1 IC50
[7] = tested on: RS4;11; assay: cells; assay type: cell-based; conditions: Homo sapiens, RS4-11, read-out: RS4;11 IC50
[8] = tested on: MOLT-3; assay: cells; assay type: cell-based; conditions: Homo sapiens, MOLT-3, read-out: MOLT-3 IC50
[9] = tested on: leukemic cell lines (NALM-6, MOLT-3, ALL1, RS4;11); assay: cells; conditions: Homo sapiens, read-out: IC50 values in leukemic cell lines
[10] = tested on: BT20
[11] = tested on: MOLT-3; assay: In situ detection of apoptosis (nick-end-labeling, ApopTag), MOLT-3; assay type: cell-based, human; conditions: MOLT-3, WHI-P381 2 μg/ml, 36 hour incubation (FIG. 1D)
Method: as §2, §3, §4

[12] = tested on: NALM-6 cells; assay: MTT cytotoxicity over 1-4 days versus arsenic trioxide, NALM-6; conditions: for IC50: Homo sapiens
[13] = tested on: BT20; assay: cells; conditions: Homo sapiens, BT-20, read-out: BT20 IC50
[14] = MOLT-3, concentration 0.1 (mM as printed)
[15] = MOLT-3, concentration 1 (mM as printed)
[16] = MOLT-3, concentration 10 (mM as printed)
[17] = MOLT-3, concentration 100 (mM as printed)
[18] = NALM-6, concentration 0.1 (mM as printed)
[19] = NALM-6, concentration 1 (mM as printed)
[20] = NALM-6, concentration 10 (mM as printed)
[21] = NALM-6, concentration 100 (mM as printed)

## CSc1nccc(Nc2ccccc2[As](=O)(O)O)n1 [WHI-P381, 2-Methylthio4-(2′-phenylarsenic acid)-aminopyrimidine]
[1]; [14]
  % Inhibition: 70.2%
  Mean No. of Colonies/10^6 Cells: 429(202, 656) Colonies/10^6 Cells
[1]; [15]
  % Inhibition: 100%
  Mean No. of Colonies/10^6 Cells: 0 Colonies/10^6 Cells
[1]; [16]
  % Inhibition: 100%
  Mean No. of Colonies/10^6 Cells: 0 Colonies/10^6 Cells
[1]; [17]
  % Inhibition: 100%
  Mean No. of Colonies/10^6 Cells: 0 Colonies/10^6 Cells
[2]
  cytotoxic activity against primary leukemic cells (in words): susceptible to the cytotoxic effects
[3]
  apoptosis: fluorescence versus untreated cells: much greater Fluorescence
[4]
  IC50: < 1900 nM
[5]; [18]
  % Inhibition: 100%
  Mean No. of Colonies/10^6 Cells: 0 Colonies/10^6 Cells
[5]; [19]
  % Inhibition: 100%
  Mean No. of Colonies/10^6 Cells: 0 Colonies/10^6 Cells
[5]; [20]
  % Inhibition: 100%
  Mean No. of Colonies/10^6 Cells: 0 Colonies/10^6 Cells
[5]; [21]
  % Inhibition: 100%
  Mean No. of Colonies/10^6 Cells: 0 Colonies/10^6 Cells
[6]
  IC50: < 1900 nM
[7]
  IC50: < 1900 nM
[8]
  IC50: < 1900 nM
[9]
  IC50: ≤ 1900 nM
[10]
  cytotoxic against the breast cancer cell line BT20 (in words): cytotoxic
[11]
  apoptosis: fluorescence versus untreated cells: much greater Fluorescence
other
  melting point: 225 to 228 °C
[12]; NALM-6, 24 h, read-out: Cytotoxicity against NALM-6 cells IC50, Day 1
  IC50: 2030 nM
[12]; NALM-6, 48 h, read-out: Cytotoxicity against NALM-6 cells IC50, Day 2
  IC50: 850 nM
[12]; NALM-6, 72 h, read-out: Cytotoxicity against NALM-6 cells IC50, Day 3
  IC50: 700 nM
[12]; NALM-6, 96 h, read-out: Cytotoxicity against NALM-6 cells IC50, Day 4
  IC50: 680 nM
[12]; NALM-6, 0.07 μM to 5 μM, 1-4 days, FIGS. 2A-2D
  cytotoxicity compared with arsenic trioxide (in words): more cytotoxic than arsenic trioxide
[13]
  IC50: 17300 nM
